# From US20260256771A1, “GALUNISERTIB FOR USE IN THE TREATMENT OF ANDROGENIC ALOPECIA” (SAÚDE VIÁVEL, S.A., priority 2022, published 2026)
# Tests used:
# [1] = tested on: human hair follicle organ cultures (HFOCs); assay: Ex vivo human scalp hair follicle organ culture: catagen onset and hair shaft elongation; type: cell-based; settings: 10 μM; in comparison to untreated controls; 10 days culture
# Description: FIG. 2. Galunisertib delays catagen entry in HFOCs. a) Hair growth ex vivo (HFOCs) under different treatment conditions for 10 days. Representative HF photos for each condition over time are shown in the panels. DP detachment was used as readout for catagen onset. Scale bar, 1 mm. b) Catagen onset timing in HFOCs under different treatment conditions as indicated. c) Percentage of hair shaft elongation in comparison to day 0. In b) and c), values are mean±SD of HFOCs established from n=5 independent donors (n>20 HFs per condition). ns not significant, *p≤0.05, **p≤0.01 by Mann-Whitney (b,c).
# (§1) In addition, only anagen hair follicles are used.
# (§2) Hair growth percentages is normalized to day 0.
# [2] = tested on: β-catenin; assay: Immunohistochemistry of cryo-sectioned HFOCs: β-catenin; type: cell-based, human; settings: DP adjacent epithelial compartment; Galunisertib 48 h vs untreated
# Description: as §2
# (§3) FIG. 6. Galunisertib improves the WNT signaling in the bulb epithelial compartment. a) Representative IHC images of tissue sections of HFOCs with and without Galunisertib and stained for LEF1 (red) and β-catenin (green). Nuclei were counterstained with DAPI (blue). Scale bar, 100 μm. b,e) Adjusted intensity levels of LEF1 and β-catenin per DP and HB (bulb epithelium) areas, as measured in tissue sections from HFOCs with and without Galunisertib. All values are mean±SD of HFOCs established from n=4 donors (n>8 HFs per condition). ns p≥0.05, *p≤0.05 by unpaired t-test.
# (§4) For immunohistochemistry, 2-day HFOCs are used for immunohistochemistry analysis. Briefly, HFs were embedded on a drop of OCT and stored at −80° C. 8 μm cryosections are air-dried and fixed in 4% PFA (for TGFβ2, cleavage Caspase 3, p-SMAD2 and KI67 immunostainings) or cold acetone (for LEF1 and β-catenin immunostaining). Following 2×5 min rinse with PBS, microsections are permeabilized 2× for 10 min with PBS+0.3% Triton X 100 (PBS-T) and then blocked with PBS+10% fetal bovine serum (FBS) for 1 hour at room temperature. Antibodies are diluted in PBS-T+1% FBS and incubation done overnight at 4° C. […]
# [3] = tested on: p-SMAD2; assay: Immunohistochemistry of cryo-sectioned HFOCs: p-SMAD2; type: cell-based, human
# Description: as §2
# (§5) FIG. 4. Galunisertib inhibits TGFβ2 paracrine signaling in the bulb epithelial compartment. a) Representative Immunohistochemistry (IHC) images of tissue sections of HFOCs untreated and treated with Galunisertib as indicated and stained for TGFβ2 and p-SMAD2. In the upper left frame is exemplified how the dermal papilla (DP) and adjacent bulb epithelial compartment (HB) regions were delineated for quantitative analyses shown in b-e. Nuclei were counterstained with DAPI. Scale bar, 100 μm. b-e) Adjusted intensity levels of TGFβ2 and p-SMAD2 per DP and HB areas as measured in tissue sections from untreated and Galunisertib-treated HFOCs. Values are mean±SD of HFOCs established from n=4 donors (n>9 HFs per condition). ns p≥0.05, *p≤0.05 by unpaired t-test.
# (§6) For immunohistochemistry, 2-day HFOCs are used for immunohistochemistry analysis. Briefly, HFs were embedded on a drop of OCT and stored at −80° C. 8 μm cryosections are air-dried and fixed in 4% PFA (for TGFβ2, cleavage Caspase 3, p-SMAD2 and KI67 immunostainings) or cold acetone (for LEF1 and β-catenin immunostaining). Following 2×5 min rinse with PBS, microsections are permeabilized 2× for 10 min with PBS+0.3% Triton X 100 (PBS-T) and then blocked with PBS+10% fetal bovine serum (FBS) for 1 hour at room temperature. […]
# [4] = tested on: LEF1; assay: Immunohistochemistry of cryo-sectioned HFOCs: LEF1; type: cell-based, human; settings: Galunisertib 48 h vs untreated
# Description: as §2, §3, §4
# [5] = tested on: TGFβ2 protein; assay: Immunohistochemistry of cryo-sectioned HFOCs: TGFβ2; type: cell-based, human
# Description: as §2, §5, §6
# [6] = tested on: phosphorylated SMAD2 (p-SMAD2); assay: Western blot of phospho-SMAD2 in hair bulbs of HFOCs; type: cell-based, human; settings: HFOCs treated with DHT or DHT+galunisertib for 72 h
# Protocol: For western blot, hair bulbs are dissected from HFOCs treated with DMSO, DHT and Galunisertib for 72 h. Upon rinse in PBS, hair bulbs are lysed in Laemmli buffer (without bromophenol blue) with Halt Protease Inhibitor Cocktail and Halt Phosphatase Inhibitor Cocktail, and lysates are sonicated. Lysates from 10 hair bulbs are used for each condition tested. Total extracts are then loaded in SDS-polyacrylamide gels and transferred onto nitrocellulose membranes for western blot analysis. Membranes are blocked during 1 h with TBS+5% BSA. Primary and secondary antibodies are diluted in TBS+2% BSA accordingly to Supplementary Table 1. Signal is detected using Clarity Western ECL Substrate reagent. A GS-800 calibrated densitometer with Quantity One 1-D Analysis Software 4.6 (Bio-Rad Laboratories) is used for quantitative analysis of protein levels.
# as §1, §2
# [7] = Mass spectrometry of skin biopsies; type: in vivo, mouse; settings: skin retrieved at day 14, N=3, mean±SD
# Protocol: For mass spectrometry of skin biopsies, dorsal skin of mice under 10 μM and 100 μM galunisertib topical treatment for 14 days is collected after anesthesia (Ketamine 150 mg/kg+Medetomidine 2 mg/kg) and perfusion with PBS. Skin samples are snap frozen and stored at −80° C. until being sent for mass spec analysis by Cyprotex. Skin samples from N=3 animals per condition are homogenized 1:4 in mouse plasma, then quantified against a mouse plasma calibration curve. Analytical runs meeting calibration standard and QC acceptance criteria.
# [8] = bulb epithelial compartment surrounding the DP, Galunisertib 48 h vs untreated
# [9] = dermal papilla, HFOCs with or without Galunisertib for 48 h
compound,measurement,setting,value
Cc1cccc(-c2nn3c(c2-c2ccnc4ccc(C(N)=O)cc24)CCC3)n1 [Galunisertib],catagen entry (mean time HFOCs take to enter catagen),[1],capable of delaying catagen entry
same,hair shaft elongation,[1],impact in the hair shaft elongation
same,β-catenin intensity levels,[2],significantly enhances
same,p-SMAD2 fluorescence intensity levels at the bulb epithelial compartment,[3]; [8],decreased levels
same,p-SMAD2 in DP (fluorescence intensity),[3]; [9],not significantly reduced
same,LEF1 levels in the bulb epithelium,[4]; bulb epithelium,increased levels
same,LEF1 levels in the DP,[4]; dermal papilla,not significantly upregulated
same,TGFβ2 fluorescence intensity levels at the bulb epithelial compartment,[5]; [8],decreased levels
same,DP levels of TGFβ2 (fluorescence intensity),[5]; [9],isn't any significant change
same,canonical TGFβ signaling activation (phospho-SMAD2 protein levels),[6],blocks TGFβ activation
same,concentration of compound in skin biopsies,[7]; topical 10 μM galunisertib,1.6 ± 0.7 µM
same,concentration of compound in skin biopsies,[7]; topical 100 μM galunisertib,9.6 ± 0.6 µM
